Numbers after ± are expanded uncertainties.
Details: 101 kPa, Liquid; for electrical conductivity: conductivity meter LF 340 and a standard conductivity cell TetraCon; for mass density: Pycnometric method

C=CCn1cc[n+](CCOC)c1.O=S(=O)([N-]S(=O)(=O)C(F)(F)F)C(F)(F)F
Details | electrical conductivity [S/m] | mass density [kg/m3] | viscosity [mPa·s]
308.7 K | 0.546 ± 0.033 | – | –
309 K | – | 1437 ± 2.2 | 23.7 ± 1
313.3 K | 0.627 ± 0.038 | – | –
314 K | – | 1432.3 ± 2.2 | 20.3 ± 0.9
317 K | – | 1429.6 ± 2.2 | 17.8 ± 0.8
318.1 K | 0.72 ± 0.043 | – | –
323.3 K | 0.828 ± 0.05 | – | –
323.5 K | – | 1423.5 ± 2.2 | 14.6 ± 0.6
327.9 K | 0.935 ± 0.056 | – | –
328 K | – | 1419.4 ± 2.2 | 13.1 ± 0.6
332.9 K | 1.06 ± 0.063 | – | –
334 K | – | 1413.9 ± 2.2 | 11.2 ± 0.5
337.6 K | 1.18 ± 0.071 | – | –
338.5 K | – | 1409.9 ± 2.2 | 10 ± 0.4
343 K | 1.33 ± 0.08 | – | –
344 K | – | 1404.9 ± 2.2 | 8.8 ± 0.4
348 K | – | 1401.3 ± 2.2 | 8.2 ± 0.4
348.1 K | 1.48 ± 0.089 | – | –
352 K | 1.6 ± 0.096 | – | –
354.2 K | – | 1395.8 ± 2.2 | 7 ± 0.3
